The first assay addresses recombinant human ROCK-1 (Homo sapiens, UniProt Q13464). As to the kind of experiment: In-vitro inhibitory activity on recombinant human ROCK-1 (IMAP fluorescence polarisation, fluorescein-labelled peptide). It is filed as biochemical. The conditions noted are these: read-out: ROCK-I pIC50 (converted). As for the experimental part: In-Vitro Determination of Inhibitory Activity of Compounds of the Invention on Recombinant Human ROCK-1
10 μl of a 0.1 ng/μl solution of recombinant human ROCK-1 in assay buffer containing 2 mM dithiothreitol, is then added to each well, yielding a final test compound concentration of 10 μM. Following a one hour incubation at room temperature in the dark, enzyme activity is detected by adding 60 μl of IMAP binding reagent (Molecular Devices) to each well.
recombinant human ROCK-1, sequence (Q13464 whole entry): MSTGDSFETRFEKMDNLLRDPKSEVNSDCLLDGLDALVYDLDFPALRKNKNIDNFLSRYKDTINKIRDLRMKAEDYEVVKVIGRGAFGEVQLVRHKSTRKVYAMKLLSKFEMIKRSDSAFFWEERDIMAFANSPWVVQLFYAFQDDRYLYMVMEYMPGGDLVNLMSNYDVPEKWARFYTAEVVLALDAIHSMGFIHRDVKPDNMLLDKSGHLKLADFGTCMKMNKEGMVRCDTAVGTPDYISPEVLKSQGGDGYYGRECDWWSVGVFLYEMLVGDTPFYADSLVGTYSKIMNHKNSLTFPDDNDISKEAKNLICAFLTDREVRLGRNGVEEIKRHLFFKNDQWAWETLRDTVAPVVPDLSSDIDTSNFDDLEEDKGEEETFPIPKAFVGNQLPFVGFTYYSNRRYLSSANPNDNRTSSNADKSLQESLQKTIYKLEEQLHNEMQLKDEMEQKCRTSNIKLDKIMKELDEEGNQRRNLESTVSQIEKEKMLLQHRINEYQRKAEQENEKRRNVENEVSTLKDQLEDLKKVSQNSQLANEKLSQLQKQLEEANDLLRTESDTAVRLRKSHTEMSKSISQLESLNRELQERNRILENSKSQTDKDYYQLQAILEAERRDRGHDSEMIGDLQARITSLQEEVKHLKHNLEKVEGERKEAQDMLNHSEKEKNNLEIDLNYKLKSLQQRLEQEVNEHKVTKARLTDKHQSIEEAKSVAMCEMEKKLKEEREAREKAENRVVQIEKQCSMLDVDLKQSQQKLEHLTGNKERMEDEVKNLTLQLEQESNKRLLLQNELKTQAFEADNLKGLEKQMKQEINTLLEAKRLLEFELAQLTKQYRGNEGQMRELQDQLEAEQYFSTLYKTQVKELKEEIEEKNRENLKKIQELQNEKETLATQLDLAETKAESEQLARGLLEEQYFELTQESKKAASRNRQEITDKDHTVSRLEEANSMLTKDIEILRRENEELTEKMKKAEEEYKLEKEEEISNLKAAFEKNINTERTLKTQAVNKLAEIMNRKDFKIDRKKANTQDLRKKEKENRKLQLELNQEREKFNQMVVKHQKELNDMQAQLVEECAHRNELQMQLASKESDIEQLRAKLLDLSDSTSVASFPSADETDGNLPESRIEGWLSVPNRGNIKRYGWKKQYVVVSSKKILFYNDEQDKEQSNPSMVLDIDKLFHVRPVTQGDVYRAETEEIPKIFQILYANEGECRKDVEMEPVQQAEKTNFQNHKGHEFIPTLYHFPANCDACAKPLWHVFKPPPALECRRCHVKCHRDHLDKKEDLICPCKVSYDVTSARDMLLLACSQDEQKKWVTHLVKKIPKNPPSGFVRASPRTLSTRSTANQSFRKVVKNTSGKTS
With `O=c1[nH]ccc2cc(O[C@@H]3CCCN(CCOc4ccccc4)C3)ccc12` [Example 32E, (R)-6-[1-(2-Phenoxyethyl)piperidin-3-yloxy]-2H-isoquinolin-1-one], the IC50 is 251 nM.

Turning to `Nc1nccc2cc(OC3CCCN(Cc4ccc[nH]4)C3)ccc12` (stereo not drawn) [Example 7F, 6-[1-(1H-Pyrrol-2-ylmethyl)piperidin-3-yloxy]isoquinolin-1-ylamine], the IC50 is 126 nM.

In the case of `CN1CCC(Oc2ccc3c(=O)[nH]ccc3c2)CC1` [Example 30G, 6-(1-Methylpiperidin-4-yloxy)-2H-isoquinolin-1-one], the IC50 is 631 nM. Still for that read-out and setting: with `Nc1nccc2cc(SC3CCCNC3)ccc12` (stereo not drawn) [Example 12, 6-(Piperidin-3-ylsulfanyl)isoquinolin-1-ylamine] the figure was 501 nM. Regarding `O=C(CN1CCC[C@H](Oc2ccc3c(=O)[nH]ccc3c2)C1)c1ccccc1` [Example 32B, (S)-6-[1-(2-Oxo-2-phenylethyl)piperidin-3-yloxy]-2H-isoquinolin-1-one], the IC50 was 501 nM. Turning to `Nc1nccc2cc(S[C@@H]3CCNC3)ccc12` [Example 13B, (R)-6-(Pyrrolidin-3-ylsulfanyl)isoquinolin-1-ylamine], the IC50 was 631 nM. For the compound `O=c1[nH]ccc2cc(OC3CCN(CCO)CC3)ccc12` [Example 31E, 6-[1-(2-Hydroxyethyl)piperidin-4-yloxy]-2H-isoquinolin-1-one], the IC50 is 794 nM. For the compound `Nc1nccc2cc(OC3CCCN(Cc4cccs4)C3)ccc12` (stereo not drawn) [Example 7G, 6-(1-Thiophen-2-ylmethylpiperidin-3-yloxy)isoquinolin-1-ylamine], the IC50 was 251 nM. In the case of `CC(c1ccccc1)N1CCC[C@H](Oc2ccc3c(N)nccc3c2)C1` (stereo partly drawn) [Example 21G, (S)-6-[1-(1-Phenylethyl)piperidin-3-yloxy]isoquinolin-1-ylamine], the IC50 is 200 nM. Still for that read-out and setting: with `O=c1[nH]ccc2cc(OC3CCCN(CC4CCCCC4)C3)ccc12` (stereo not drawn) [Example 33C, 6-(1-Cyclohexylmethylpiperidin-3-yloxy)-2H-isoquinolin-1-one] the figure was 501 nM. Turning to `O=c1[nH]ccc2cc(OC3CCN(CCCO)CC3)ccc12` [Example 31C, 6-[1-(3-Hydroxypropyl)piperidin-4-yloxy]-2H-isoquinolin-1-one], the IC50 was 794 nM. As for `O=c1[nH]ccc2cc(OC3CCN(Cc4ccc[nH]4)CC3)ccc12` [Example 31G, 6-[1-(1 H-Pyrrol-2-ylmethyl)piperidin-4-yloxy]-2H-isoquinolin-1-one], the IC50 is 316 nM. Turning to `Nc1nccc2cc(SC3CCNCC3)ccc12` [Example 13C, 6-(Piperidin-4-ylsulfanyl)isoquinolin-1-ylamine], the IC50 was 631 nM. As for `Nc1nccc2cc(S[C@H]3CCNC3)ccc12` [Example 13A, (S)-6-(Pyrrolidin-3-ylsulfanyl)isoquinolin-1-ylamine], the IC50 is 631 nM. With `Cc1cc2c(N)nccc2cc1OC1CCCN(Cc2ccccc2)C1` (stereo not drawn) [Example 19A], the IC50 is 794 nM.

With `COc1ccc(CN2CCCC(Oc3ccc4c(=O)[nH]ccc4c3)C2)cc1` (stereo not drawn) [Example 23D, 6-[1-(4-Methoxybenzyl)piperidin-3-yloxy]-2H-isoquinolin-1-one], the IC50 is 398 nM. Regarding `Cc1ccc(CN2CCC[C@H](Oc3ccc4c(N)nccc4c3)C2)cc1` [Example 8B, (S)-6-[1-(4-Methylbenzyl)piperidin-3-yloxy]isoquinolin-1-ylamine], the IC50 is 158 nM.

For the compound `O=c1[nH]cc(Br)c2cc(O[C@H]3CCCNC3)ccc12` [Example 29], the IC50 is 316 nM. Consider `Nc1nccc2cc(OC3CCCN(CCOc4ccccc4)C3)ccc12` (stereo not drawn) [Example 21, 6-[1-(2-Phenoxyethyl)piperidin-3-yloxy]isoquinolin-1-ylamine], for which the IC50 is 200 nM.

On to `O=c1[nH]ccc2cc(OC3CCN(Cc4ccco4)CC3)ccc12` [Example 30E, 6-(1-Furan-2-ylmethylpiperidin-4-yloxy)-2H-isoquinolin-1-one], for which the IC50 is 501 nM.

With `O=c1[nH]ccc2cc(O[C@H]3CCCN(CCOc4ccccc4)C3)ccc12` [Example 32C, (S)-6-[1-(2-Phenoxyethyl)piperidin-3-yloxy]-2H-isoquinolin-1-one], the IC50 was 631 nM. Regarding `O=c1[nH]ccc2cc(SC3CCNCC3)ccc12` [Example 25, 6-(Piperidin4-ylsulfanyl)-2H-isoquinolin-1-one], the IC50 is 200 nM. `COc1cccc(CN2CCC(Oc3ccc4c(=O)[nH]ccc4c3)CC2)c1` [Example 31F, 6-[1-(3-Methoxybenzyl)piperidin-4-yloxy]-2H-isoquinolin-1-one]: the IC50 was 398 nM.

The same assay, now with this note: recombinant human ROCK-1, dose response curve; IC50 = concentration causing 50% inhibition of the enzymatic activity.
Take `Cc1ccc(CN2CCC(Oc3ccc4c(=O)[nH]ccc4c3)CC2)cc1` [Example 30A, 6-[1-(4-Methylbenzyl)piperidin-4-yloxy]-2H-isoquinolin-1-one]: the “ROCK-I pIC50” value stood at 6.1.

For the origin of these results see patent US7618985B2 (N.V. Organon, priority 2005, dated 2009).
